Measurements taken from patent US20060264439A1, “Inhibitors of polo-like kinase-1” (SuperGen, Inc., priority 2005, published 2006).

Target: T1, Plk-1 (Homo sapiens, UniProt P53350)
T1 construct: purchased Cyclex
Test: ELISA-based Polo-like Kinase-1 activity assay (Cyclex)
Assay type: biochemical
Conditions: compound at 10 uM, 10 mU purified Plk-1, 50 uM ATP, 30 minutes at 30° C.
Experimental: An ELISA-based Polo-like Kinase-1 activity assay (Cyclex, Nagano Japan) was used to confirm the Plk-1 inhibitory activity of the illustrative compound of the invention having the structure shown below. [drawing 39]
Briefly, 10 mU of purified Plk-1 (Cyclex) was incubated with the compound of interest in triplicate wells of a substrate-coated 96-well plate, along with 50 uM ATP and kinase buffer, for 30 minutes at 30° C. Wells were washed and probed with the anti-phospho-threonine antibody, incubated for 30 minutes at room temperature, then washed and probed again with an HRP-Anti Rabbit IgG. HRP substrate was added and the extent of phosphorylation was measured using a dual-wavelength spectrophotometer. At a concentration of 10 uM, compound (IB-10) inhibited Plk-1 activity in this assay by greater than 60%.
An ELISA-based Polo-like Kinase-1 activity assay (Cyclex, Nagano Japan) was used to confirm the Plk-1 inhibitory activity of the illustrative compound of the invention having the structure shown below (Compound 18, Table 1). [drawing 40]
Briefly, 10 mU of purified Plk-1 (Cyclex) was incubated with the compound in triplicate wells of a substrate-coated 96-well plate, along with 50 uM ATP and kinase buffer, for 30 minutes at 30° C. […] HRP substrate was added and the extent of phosphorylation was measured using a dual-wavelength spectrophotometer.

T1 sequence (P53350 whole entry): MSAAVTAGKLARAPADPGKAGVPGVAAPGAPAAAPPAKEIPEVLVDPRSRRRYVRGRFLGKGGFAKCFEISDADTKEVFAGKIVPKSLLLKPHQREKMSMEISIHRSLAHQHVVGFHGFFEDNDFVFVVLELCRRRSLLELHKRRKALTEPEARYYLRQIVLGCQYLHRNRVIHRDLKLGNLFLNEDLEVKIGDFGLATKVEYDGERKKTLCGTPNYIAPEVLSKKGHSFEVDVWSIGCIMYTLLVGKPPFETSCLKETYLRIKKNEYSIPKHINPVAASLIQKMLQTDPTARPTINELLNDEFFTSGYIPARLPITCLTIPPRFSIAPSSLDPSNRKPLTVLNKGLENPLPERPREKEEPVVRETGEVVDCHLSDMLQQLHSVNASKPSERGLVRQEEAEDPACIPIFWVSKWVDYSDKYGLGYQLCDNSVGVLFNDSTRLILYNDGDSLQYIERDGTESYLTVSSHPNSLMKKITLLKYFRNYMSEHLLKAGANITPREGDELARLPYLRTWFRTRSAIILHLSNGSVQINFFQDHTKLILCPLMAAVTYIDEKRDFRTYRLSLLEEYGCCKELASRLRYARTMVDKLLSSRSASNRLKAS

Row | Plk-1 activity reduced to % of untreated controls (remaining activity) [%] | inhibition at 10 µM (read-out: inhibited Plk-1 activity) [%] | Compound
1 | 88 | – | COc1cc2nncc(Nc3ccc(S(=O)(=O)NC(C)=O)cc3)c2cc1OC [Compound 18, N-Acetyl-4-(6,7-dimethoxy-cinnolin-4-ylamino)-benzenesulfonamide]
2 | – | > 60 | NC(=O)c1nnc2cc(Cl)c(F)cc2c1/N=C/c1ccc([N+](=O)[O-])cc1 [IB-10, (E)-4-(4-nitrobenzylideneamino)-7-chloro-6-fluorocinnoline-3-carboxamide]
